Assay results: US20230074545A1, “TREATMENT OF CANCER WITH CDK12/13 INHIBITORS” (Kinnate Biopharma Inc., priority 2019, published 2023)
Like-named read-outs stand apart in the source and are kept apart here.

How the values were obtained:
OVCAR-3 cells = assay: OVCAR-3 cell proliferation (CellTiter-Glo); format: cell-based; conditions: Homo sapiens, read-out: Inhibition of proliferation of OVCAR3 cells (IC50 in M)
Excerpt: OVCAR-3 was used as the cell line to model for ovarian cancer in vitro and in vivo. This cell line was obtained from ATCC (Catalog #HTB-161) and is an adenocarcinoma line from the malignant ascites of a patient with progressive adenocarcinoma of the ovary and embodies a preclinical model of high-grade, serous ovarian cancer (HGSOC). OVCAR-3 has been deemed an appropriate model system in which to study drug resistance in ovarian cancer, and the presence of hormone receptors should be useful for the evaluation of hormonal therapy. OVCAR-3 is resistant to clinically relevant concentrations of adriamycin, melphalan and cisplatin.
(§1) Compounds 1-5 were tested at different concentrations (from 4 μM to 126.4 pM; 0.5 log serial dilutions) for their ability to inhibit the proliferation of OVCAR-3 cells. Cells were grown in ATCC-formulated RPMI-1640 Medium (ATCC 30-2001)+10% FBS. The cells were cultured at 37° C. in a humidified chamber in the presence of 5% CO2. Proliferation assays were conducted over a 72 hour time period.
(§2) Cells were cultured and maintained as described above, with cells always fed on the day prior to assay. Assays were run with a 2 hour compound exposure followed by a washout and then a 72 hour proliferation time or exposed to the test compounds for 72 hours with no washout of compound. DMSO was used as a control in all wells not receiving test compound and DMSO wells were used for plate normalization. Proliferation and survival of cells was quantified based on the amount of total ATP following cell lysis as determined by using a standard assay kit used according to manufacturer's instructions. Experiments were performed in the same media used by each cell type for growth and maintenance. Cells (5×10^4) were plated in 96 well plates for compound exposure. CellTiter-Glo® (Promega Corporation, Madison, Wis. USA) was used to assess the anti-proliferative effects of the compounds following manufacturer's directions and utilizing the reagents supplied with the CellTiter-Glo® kit.

CDK7 = biological target: T1, CDK7 (Homo sapiens, UniProt P50613); assay: Radiometric kinase assay (33PanQinase); format: biochemical; conditions: read-out: Inhibition of CDK Activity (molar inhibition in a radiometric assay)
T1 construct: either as full-length or enzymatically active fragments; purchased ProQinase GmbH (Reaction Biology); host or cells: Sf9 insect cells or E. coli
T1 sequence (P50613 whole entry, the tested form may be a part): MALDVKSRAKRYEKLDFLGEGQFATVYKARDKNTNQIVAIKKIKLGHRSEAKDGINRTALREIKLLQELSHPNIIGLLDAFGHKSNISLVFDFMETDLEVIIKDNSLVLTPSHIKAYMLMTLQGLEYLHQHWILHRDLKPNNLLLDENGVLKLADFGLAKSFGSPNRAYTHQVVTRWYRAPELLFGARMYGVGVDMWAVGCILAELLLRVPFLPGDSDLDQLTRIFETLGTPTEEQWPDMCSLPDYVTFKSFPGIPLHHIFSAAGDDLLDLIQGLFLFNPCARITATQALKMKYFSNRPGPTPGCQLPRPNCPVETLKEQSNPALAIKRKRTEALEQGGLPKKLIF
T1 sequence (P51946 whole entry partner, the tested form may be a part): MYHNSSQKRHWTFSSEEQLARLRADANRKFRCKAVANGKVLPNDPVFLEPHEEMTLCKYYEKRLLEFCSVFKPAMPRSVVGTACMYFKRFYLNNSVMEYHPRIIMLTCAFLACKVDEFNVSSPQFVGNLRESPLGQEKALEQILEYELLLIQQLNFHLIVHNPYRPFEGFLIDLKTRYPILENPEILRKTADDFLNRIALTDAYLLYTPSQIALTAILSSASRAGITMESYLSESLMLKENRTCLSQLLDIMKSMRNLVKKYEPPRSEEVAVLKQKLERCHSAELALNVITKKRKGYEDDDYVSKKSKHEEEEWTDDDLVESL
T1 sequence (P51948 whole entry partner, the tested form may be a part): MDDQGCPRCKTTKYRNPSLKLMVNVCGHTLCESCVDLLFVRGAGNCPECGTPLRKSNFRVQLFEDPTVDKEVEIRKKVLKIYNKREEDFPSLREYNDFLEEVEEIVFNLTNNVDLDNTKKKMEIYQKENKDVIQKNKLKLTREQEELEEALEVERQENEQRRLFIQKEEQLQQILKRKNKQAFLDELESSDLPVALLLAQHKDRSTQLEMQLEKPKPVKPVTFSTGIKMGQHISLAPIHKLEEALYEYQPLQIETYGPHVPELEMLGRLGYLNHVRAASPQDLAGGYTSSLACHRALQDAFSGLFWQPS
Protocol: (§3) The compounds 1-5 (see Table 1) were assayed for kinase activity at ProQinase (ProQinase GmbH, Reaction Biology; Freiburg, Germany) using their commercially available radiometric kinase assay services. Briefly, the compounds were provided as solids and were dissolved to 1×10^−03 M/100% DMSO stock solutions on the day of assay. All protein kinases were provided by ProQinase and were expressed in Sf9 insect cells or in E. coli as recombinant GST-fusion proteins or His-tagged proteins, either as full-length or enzymatically active fragments. All kinases were produced from human cDNAs and purified by either GSH-affinity chromatography or immobilized metal. The purity of the protein kinases was examined by SDS-PAGE/Coomassie staining, the identity was checked by mass spectroscopy. A radiometric protein kinase assay (^33PanQinase® Activity Assay) was used for measuring the kinase activity of the protein kinase. All kinase assays were performed in 96-well FlashPlates™ from PerkinElmer (Boston, Mass., USA) in a 50 microliter reaction volume. The reaction cocktail was pipetted in four steps in the following order: 1) 25 microliter of assay buffer (standard buffer/[gamma-^33P]-ATP); 2) 10 microliter of ATP solution (in H2O); 3) 5 microliter of test compound (in 10% DMSO); 4) 10 microliter of enzyme/substrate mixture.
(§4) As a parameter for assay quality, the Z′-factor (Zhang et al., J. Biomol. Screen. 2: 67-73, 1999) for the low and high controls of each assay plate (n=8) was used. ProQinase's criterion for repetition of an assay plate is a Z′-factor below 0.4.

CDK2 = biological target: T2, CDK2 (Homo sapiens, UniProt P24941); assay: Radiometric kinase assay (33PanQinase); format: biochemical; conditions: read-out: Inhibition of CDK Activity (molar inhibition in a radiometric assay)
T2 construct: either as full-length or enzymatically active fragments; purchased ProQinase GmbH (Reaction Biology); host or cells: Sf9 insect cells or E. coli
Protocol: as §3, §4

CDK12 = biological target: T3, CDK12 (Homo sapiens, UniProt Q9NYV4); assay: Radiometric kinase assay (33PanQinase); format: biochemical; conditions: read-out: Inhibition of CDK Activity (molar inhibition in a radiometric assay)
T3 construct: either as full-length or enzymatically active fragments; purchased ProQinase GmbH (Reaction Biology)
T3 sequence (Q9NYV4 whole entry, the tested form may be a part): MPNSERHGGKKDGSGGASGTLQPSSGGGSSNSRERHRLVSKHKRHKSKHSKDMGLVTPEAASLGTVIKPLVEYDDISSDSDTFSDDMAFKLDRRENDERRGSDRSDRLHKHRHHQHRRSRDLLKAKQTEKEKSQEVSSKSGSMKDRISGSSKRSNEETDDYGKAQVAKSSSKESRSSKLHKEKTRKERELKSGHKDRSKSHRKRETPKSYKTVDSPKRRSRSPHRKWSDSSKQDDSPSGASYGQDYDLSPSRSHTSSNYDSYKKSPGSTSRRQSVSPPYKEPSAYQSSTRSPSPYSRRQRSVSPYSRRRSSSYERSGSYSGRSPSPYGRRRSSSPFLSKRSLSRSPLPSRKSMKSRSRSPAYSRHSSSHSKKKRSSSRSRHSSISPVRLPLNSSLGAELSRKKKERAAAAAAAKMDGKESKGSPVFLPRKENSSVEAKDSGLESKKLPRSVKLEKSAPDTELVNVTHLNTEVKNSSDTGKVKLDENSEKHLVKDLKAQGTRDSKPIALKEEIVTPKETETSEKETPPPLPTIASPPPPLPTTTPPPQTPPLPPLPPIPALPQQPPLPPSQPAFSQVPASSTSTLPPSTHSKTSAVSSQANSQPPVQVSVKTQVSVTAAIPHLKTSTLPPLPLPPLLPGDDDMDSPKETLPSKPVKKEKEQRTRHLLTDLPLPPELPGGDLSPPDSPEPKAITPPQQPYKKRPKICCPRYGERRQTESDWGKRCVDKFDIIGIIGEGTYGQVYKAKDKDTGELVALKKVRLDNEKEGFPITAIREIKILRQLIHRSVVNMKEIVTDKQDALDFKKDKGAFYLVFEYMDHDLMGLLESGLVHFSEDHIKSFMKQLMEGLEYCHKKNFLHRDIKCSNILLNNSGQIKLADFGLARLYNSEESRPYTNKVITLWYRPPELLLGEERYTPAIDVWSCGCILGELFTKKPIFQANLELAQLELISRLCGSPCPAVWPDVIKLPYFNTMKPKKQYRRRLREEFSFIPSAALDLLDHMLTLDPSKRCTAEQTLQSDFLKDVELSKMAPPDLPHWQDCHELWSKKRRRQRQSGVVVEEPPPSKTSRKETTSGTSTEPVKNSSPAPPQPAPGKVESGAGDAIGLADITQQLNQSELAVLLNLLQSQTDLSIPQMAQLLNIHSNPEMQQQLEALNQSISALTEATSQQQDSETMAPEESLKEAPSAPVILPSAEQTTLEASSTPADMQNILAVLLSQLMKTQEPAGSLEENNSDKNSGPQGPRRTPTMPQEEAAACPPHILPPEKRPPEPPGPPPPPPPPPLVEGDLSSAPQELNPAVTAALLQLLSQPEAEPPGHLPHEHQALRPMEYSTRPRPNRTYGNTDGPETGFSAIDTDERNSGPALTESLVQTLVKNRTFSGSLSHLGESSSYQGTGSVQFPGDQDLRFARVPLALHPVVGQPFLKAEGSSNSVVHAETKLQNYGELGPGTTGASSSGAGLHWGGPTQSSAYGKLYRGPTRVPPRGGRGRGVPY
T3 sequence (O75909 whole entry partner, the tested form may be a part): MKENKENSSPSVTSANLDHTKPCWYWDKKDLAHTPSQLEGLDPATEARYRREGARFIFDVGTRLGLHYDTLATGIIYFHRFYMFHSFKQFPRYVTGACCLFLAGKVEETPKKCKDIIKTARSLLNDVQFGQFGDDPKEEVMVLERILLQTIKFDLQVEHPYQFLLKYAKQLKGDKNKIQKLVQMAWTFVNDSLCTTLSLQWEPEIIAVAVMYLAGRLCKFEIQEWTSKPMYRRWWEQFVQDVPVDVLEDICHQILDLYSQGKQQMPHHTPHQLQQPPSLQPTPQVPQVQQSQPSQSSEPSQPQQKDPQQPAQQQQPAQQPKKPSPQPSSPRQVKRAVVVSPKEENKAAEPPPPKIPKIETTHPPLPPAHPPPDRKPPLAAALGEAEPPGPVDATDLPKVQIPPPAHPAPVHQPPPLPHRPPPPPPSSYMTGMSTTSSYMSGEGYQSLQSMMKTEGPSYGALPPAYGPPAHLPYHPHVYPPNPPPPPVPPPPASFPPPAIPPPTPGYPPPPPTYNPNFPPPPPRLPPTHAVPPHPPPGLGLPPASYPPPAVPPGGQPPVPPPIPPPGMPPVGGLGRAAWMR
Protocol: as §3, §4

CDK9 = biological target: T4, CDK9 (Homo sapiens, UniProt P50750); assay: Radiometric kinase assay (33PanQinase); format: biochemical; conditions: read-out: Inhibition of CDK Activity (molar inhibition in a radiometric assay)
T4 construct: either as full-length or enzymatically active fragments; purchased ProQinase GmbH (Reaction Biology); host or cells: Sf9 insect cells or E. coli
T4 sequence (P50750 whole entry, the tested form may be a part): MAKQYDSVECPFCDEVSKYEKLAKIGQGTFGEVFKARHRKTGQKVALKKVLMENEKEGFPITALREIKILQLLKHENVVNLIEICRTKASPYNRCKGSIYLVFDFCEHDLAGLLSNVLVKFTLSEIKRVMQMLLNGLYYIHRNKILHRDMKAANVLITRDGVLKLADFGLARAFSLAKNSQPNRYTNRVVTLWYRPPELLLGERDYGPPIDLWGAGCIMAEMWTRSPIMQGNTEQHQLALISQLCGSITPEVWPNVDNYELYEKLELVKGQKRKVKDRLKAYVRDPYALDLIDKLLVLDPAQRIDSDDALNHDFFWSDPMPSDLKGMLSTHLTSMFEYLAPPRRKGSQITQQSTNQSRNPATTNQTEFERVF
T4 sequence (O60563 whole entry partner, the tested form may be a part): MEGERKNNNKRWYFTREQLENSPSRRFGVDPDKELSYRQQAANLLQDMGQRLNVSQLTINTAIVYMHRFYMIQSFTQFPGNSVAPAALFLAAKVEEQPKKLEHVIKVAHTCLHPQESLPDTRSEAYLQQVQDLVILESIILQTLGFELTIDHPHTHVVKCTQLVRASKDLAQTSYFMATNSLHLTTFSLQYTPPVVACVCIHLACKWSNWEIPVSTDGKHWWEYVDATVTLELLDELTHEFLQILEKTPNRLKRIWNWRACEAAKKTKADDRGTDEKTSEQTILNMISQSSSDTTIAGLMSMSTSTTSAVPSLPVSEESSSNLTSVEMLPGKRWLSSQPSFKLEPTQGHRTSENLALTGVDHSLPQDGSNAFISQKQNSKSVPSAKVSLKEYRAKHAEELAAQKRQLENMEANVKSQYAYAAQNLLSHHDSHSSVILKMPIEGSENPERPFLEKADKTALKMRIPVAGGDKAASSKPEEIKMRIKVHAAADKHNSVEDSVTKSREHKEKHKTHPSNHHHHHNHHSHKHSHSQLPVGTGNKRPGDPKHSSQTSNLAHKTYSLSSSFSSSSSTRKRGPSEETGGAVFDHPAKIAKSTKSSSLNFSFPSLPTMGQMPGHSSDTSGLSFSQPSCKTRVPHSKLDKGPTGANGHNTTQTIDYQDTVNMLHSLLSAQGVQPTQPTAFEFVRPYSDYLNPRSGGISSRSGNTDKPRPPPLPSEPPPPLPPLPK
Protocol: as §3, §4

CDK13 = biological target: T5, CDK13 (Homo sapiens, UniProt Q14004); assay: Radiometric kinase assay (33PanQinase); format: biochemical; conditions: read-out: Inhibition of CDK Activity (molar inhibition in a radiometric assay)
T5 construct: either as full-length or enzymatically active fragments; purchased ProQinase GmbH (Reaction Biology)
Protocol: as §3, §4

HCC70 cells = assay: HCC70 cell proliferation (CellTiter-Glo); format: cell-based; conditions: Homo sapiens, read-out: Inhibition of Proliferation of HCC70 Cells (IC50 in M)
Protocol: HCC70 was the cell line used as a model of triple-negative breast cancer (TNBC). This cell line was obtained from ATCC and was initiated from a primary ductal carcinoma in 1992 (Catalog #CRL-2315; mammary gland primary ductal carcinoma). The HCC-70 tumor cell line was maintained in vitro as a monolayer culture in RPMI-1640 medium supplemented with 10% heat inactivated fetal bovine serum at 37° C. in an atmosphere of 5% CO2 in air.
as §1, with “Representative compounds” for “Compounds 1-5”, “HCC70” for “OVCAR-3”
as §2

RNA polymerase II [1] = assay: Phosphorylation of RNA polymerase II (pS2/S2) in HCC70 xenograft; format: in vivo, CB-17 SCID mice; conditions: intravenous
Protocol: The ability of compound 4 and compound 5 to inhibit phosphorylation of RNA polymerase II at the S2 unit was analyzed in a mouse xenograft model of triple-negative breast cancer. CB-17 SCID mice were inoculated with the HCC70 cells as the in vivo model for triple negative breast cancer. Each mouse was inoculated subcutaneously on the right flank with HCC70 tumor cells (5×106) in 0.1 mL of RPMI-1640 Medium and Matrigel mixture (1:1 ratio) for tumor development. The treatment started when the mean tumor size reached approximately 100-150 mm^3. Mice were treated intravenously with vehicle only, 20 mg/kg of compound 4, 25 mg/kg of compound 4, 10 mg/kg of compound 5, or 25 mg/kg of compound 5 for 2 hours. Measurements were taken at 0.5 hours, 6 hours and 24 hours after the dose. The amount of phosphorylated RNA polymerase II and the total amount of RNA polymerase II was analyzed. The values were normalized by taking the ratio of the phosphorylated RNA polymerase II to the total RNA polymerase II (pS2/S2).

RNA polymerase II [2] = assay: Inhibition of phosphorylation of RNA polymerase II in NCI-H82 cells; format: cell-based; conditions: Homo sapiens, 2 hours, phosphorylated/total RNA polymerase II
Protocol: CDK12 and CDK13 phosphorylate RNA polymerase II. The ability of compound 1 to inhibit phosphorylation of RNA polymerase II was analyzed in NCI-H82 cells. 200,000 cells were plated in each well of a 96 well MSD plate. Cells were treated with compound 1, THZ531 (a positive control), or E9 at concentrations between 4 μM to 126.4 pM (0.5 log serial dilutions) for 2 hours. THZ531 and E9 are further discussed in Gao et al, Cell Chemical Biology 2017. The amount of phosphorylated RNA polymerase II and the total amount of RNA polymerase II was analyzed using antibodies. The values were normalized by taking the ratio of the phosphorylated RNA polymerase II to the total RNA polymerase II. As depicted in FIG. 3A (THZ531), FIG. 3B (Compound 1), and Table 6, increasing the concentration of compound 1 results in a dose-specific increase in the inhibition of phosphorylation of RNA polymerase II.

[3] = OVCAR-3 (no washout), exposed for 72 hours
[4] = HCC70 (no washout), exposed for 72 hours
[5] = HCC70 (w/washout), 2 hour exposure, washout, 72 hour proliferation
[6] = OVCAR-3 (w/washout), 2 hour exposure, washout, 72 hour proliferation

C=CC(=O)N(C)c1ccc(C(=O)N2CC[C@@H](Nc3ncc(Cl)c(OC)n3)C2)cc1 [Compound 2, (R)-N-(4-(3-((5-chloro-4-methoxypyrimidin-2-yl)amino)pyrrolidine-1-carbonyl)phenyl)-N-methylacrylamide] showed an IC50 (OVCAR-3 cells; [3]) of 7.63 nM, an IC50 (CDK7) of 518 nM and an IC50 (CDK2) of 11300 nM. It also gave an IC50 (CDK12) of 54.4 nM, an IC50 (CDK9) of 1320 nM and an IC50 (CDK13) of 324 nM. For the same molecule, the IC50 (HCC70 cells; [4]) was 11.3 nM and the IC50 (HCC70 cells; [5]) was 38 nM.

Molecule C=CC(=O)Nc1ccc(C(=O)N2CC[C@@H](Nc3ncc(Cl)cn3)C2)cc1 [Compound 3, (R)-N-(4-(3-((5-chloropyrimidin-2-yl)amino)pyrrolidine-1-carbonyl)phenyl)acrylamide] has an IC50 (OVCAR-3 cells; [3]) of 7.45 nM, an IC50 (OVCAR-3 cells; [6]) of 33.7 nM and an IC50 (CDK7) of 2790 nM. For the same molecule, the IC50 (CDK2) was 7930 nM, the IC50 (CDK12) was 96.7 nM and the IC50 (CDK9) was 1170 nM. It also gave an IC50 (CDK13) of 379 nM, an IC50 (HCC70 cells; [4]) of 10.1 nM and an IC50 (HCC70 cells; [5]) of 110 nM.

C#Cc1cnc(N[C@@H]2CCN(C(=O)c3ccc(NC(=O)C=C)cc3)C2)nc1 [Compound 5, (R)-N-(4-(3-((5-ethynylpyrimidin-2-yl)amino)pyrrolidine-1-carbonyl)phenyl)acrylamide] showed an IC50 (OVCAR-3 cells; [3]) of 10.1 nM, an IC50 (OVCAR-3 cells; [6]) of 103 nM and an IC50 (CDK7) of 3770 nM. It also gave an IC50 (CDK2) of 3370 nM, an IC50 (CDK12) of 59.3 nM and an IC50 (CDK9) of 1370 nM. The IC50 (CDK13) was 104 nM, the “decrease in the pS2/S2 ratio, 25 mg/kg versus 10 mg/kg” value (RNA polymerase II [1]; all time points (0.5, 6, 24 hours)) was “greater decrease” and the “pS2/S2 compared to treatment with the vehicle alone” value (RNA polymerase II [1]; compound 4 20 or 25 mg/kg, compound 5 10 or 25 mg/kg, 0.5, 6 and 24 hours after the dose) was “reduced the pS2/S2 at all time points”. For the same molecule, the IC50 (HCC70 cells; [4]) was 19.3 nM and the IC50 (HCC70 cells; [5]) was 82.1 nM.

CN(C)C/C=C/C(=O)Nc1ccc(C(=O)N2CCC[C@@H](Nc3ncc(Cl)c(-c4c[nH]c5ccccc45)n3)C2)cc1 [THZ531, reference compound] showed an IC50 (RNA polymerase II [2]) of 312 nM.
